Experimental data reported in the SangsterLogP compilation.

Experiment: method code SF-AS, from DOI: 10.1016/0223-5234(92)90004-k

Row | logP | SMILES
1 | 1.94 | COc1ccc(-c2cn3cccnc3n2)c(OC)c1
2 | 1.68 | COc1ccc(-c2cn3cc(N)cnc3n2)c(OC)c1
3 | 1.62 | COc1ccc(-c2nc3ncc(N)cc3[nH]2)c(OC)c1
4 | 0.33 | COc1cc(S(C)=O)ccc1-c1nc2ncc(N)cc2[nH]1 (stereo not given)
5 | 1.05 | COc1cc(OS(C)(=O)=O)ccc1-c1cn2cccnc2n1

The remaining lines, values behind:

Row | SMILES | logP
6 | COc1cc(C(N)=O)ccc1-c1nc2cnccc2[nH]1 | 1.18
7 | COc1cc(SC)ccc1-c1cn2cccnc2n1 | 2.44
8 | COc1cc(C(N)=O)ccc1-c1cn2cccnc2n1 | 0.7
9 | COc1cc(NS(C)(=O)=O)ccc1-c1cn2cccnc2n1 | 0.72
10 | COc1ccc(-c2nc3ncccc3[nH]2)c(OC)c1 | 2.56
